Assay results: ChEMBL document CHEMBL4321825, “Discovery of a Series of 5-Azaquinazolines as Orally Efficacious IRAK4 Inhibitors Targeting MyD88L265P Mutant Diffuse Large B Cell Lymphoma” (J Med Chem, 2019)
≈ marks a conversion by molar mass, not a printed value. Calls of active or inactive are those of the source. The calls are words filed in the database; no cut-off is given here.

Columns and labels:
[1] = molecular target: T1, Interleukin-1 receptor-associated kinase 1 (Homo sapiens, UniProt P51617); test: Inhibition of IRAK1 (unknown origin) at 0.1 uM relative to control
Target sequence in this assay (P51617 whole entry, looked up): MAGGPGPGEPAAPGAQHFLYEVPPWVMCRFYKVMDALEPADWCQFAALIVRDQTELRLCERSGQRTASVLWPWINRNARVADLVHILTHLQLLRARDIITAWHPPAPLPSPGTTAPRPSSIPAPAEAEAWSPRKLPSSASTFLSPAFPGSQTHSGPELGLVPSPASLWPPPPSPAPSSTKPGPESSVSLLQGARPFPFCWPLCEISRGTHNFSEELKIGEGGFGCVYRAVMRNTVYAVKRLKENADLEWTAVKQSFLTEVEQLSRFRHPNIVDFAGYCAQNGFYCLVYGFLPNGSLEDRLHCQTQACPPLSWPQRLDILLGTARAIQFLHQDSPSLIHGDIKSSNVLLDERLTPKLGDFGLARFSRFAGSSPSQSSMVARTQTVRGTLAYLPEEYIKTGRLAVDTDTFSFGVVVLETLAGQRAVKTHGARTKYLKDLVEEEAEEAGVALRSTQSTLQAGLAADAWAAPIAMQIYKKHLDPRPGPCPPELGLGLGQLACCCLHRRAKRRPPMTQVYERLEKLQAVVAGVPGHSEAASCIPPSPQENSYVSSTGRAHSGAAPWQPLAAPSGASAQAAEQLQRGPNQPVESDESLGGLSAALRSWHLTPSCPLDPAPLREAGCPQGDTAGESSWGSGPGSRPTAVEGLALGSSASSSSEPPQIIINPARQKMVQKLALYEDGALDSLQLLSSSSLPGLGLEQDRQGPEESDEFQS

OCI-LY19 [2] = test: Growth inhibition of human OCI-LY19 cells at 10 uM incubated for 3 days by Alamar blue dye based fluorescence assay (reference value: 3%); assay type: functional; details: OCI-LY19, 72 h, read-out: GI
[3] = molecular target: Dual specificity protein kinase CLK4 (Homo sapiens, UniProt Q9HAZ1); test: Inhibition of human recombinant CLK4 expressed in Baculovirus system
Sequence of Dual specificity protein kinase CLK4 (Q9HAZ1 whole entry): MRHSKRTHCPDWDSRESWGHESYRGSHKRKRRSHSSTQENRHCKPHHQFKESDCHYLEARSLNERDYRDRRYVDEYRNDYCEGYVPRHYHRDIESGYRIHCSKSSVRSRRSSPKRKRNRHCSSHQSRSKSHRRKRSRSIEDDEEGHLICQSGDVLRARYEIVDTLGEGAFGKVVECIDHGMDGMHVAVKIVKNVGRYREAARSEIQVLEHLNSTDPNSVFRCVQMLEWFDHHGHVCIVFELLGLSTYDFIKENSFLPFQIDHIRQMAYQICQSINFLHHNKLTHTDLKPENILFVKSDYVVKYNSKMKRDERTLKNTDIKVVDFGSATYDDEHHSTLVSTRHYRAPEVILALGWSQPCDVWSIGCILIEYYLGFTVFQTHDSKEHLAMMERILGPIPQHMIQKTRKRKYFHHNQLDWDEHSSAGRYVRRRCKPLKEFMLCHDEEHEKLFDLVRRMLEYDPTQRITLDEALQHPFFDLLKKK

[4] = molecular target: Cyclin-dependent kinase 9 (Homo sapiens, UniProt P50750); test: Inhibition of CDK9 (unknown origin)
Sequence of Cyclin-dependent kinase 9 (P50750 whole entry): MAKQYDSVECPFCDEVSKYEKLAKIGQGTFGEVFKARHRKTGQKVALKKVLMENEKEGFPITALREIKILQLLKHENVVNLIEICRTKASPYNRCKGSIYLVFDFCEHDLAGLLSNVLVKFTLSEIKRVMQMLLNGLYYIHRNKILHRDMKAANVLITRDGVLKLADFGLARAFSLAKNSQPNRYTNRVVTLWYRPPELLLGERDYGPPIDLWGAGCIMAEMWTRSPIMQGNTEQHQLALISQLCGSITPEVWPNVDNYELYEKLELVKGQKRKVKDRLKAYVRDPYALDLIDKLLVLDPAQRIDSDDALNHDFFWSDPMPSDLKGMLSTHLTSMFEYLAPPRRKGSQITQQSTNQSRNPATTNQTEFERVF

OCI-LY19 [5] = test: Growth inhibition of human OCI-LY19 cells at 1.7 uM incubated for 3 days by Alamar blue dye based fluorescence assay (reference value: 3%); assay type: functional; details: OCI-LY19, 72 h, read-out: GI
[6] = Unbound fraction in mouse plasma at 37 degC by equilibrium dialysis; assay type: ADME, cell-free
[7] = AUC in SCID mouse at 50 mg/kg, po; assay type: ADME, organism-based; details: in vivo
[8] = Intrinsic permeability in human Caco2 cells; assay type: ADME, cell-based; details: Caco-2
[9] = molecular target: T2, Interleukin-1 receptor-associated kinase 4 (Homo sapiens) (UniProt Q9NWZ3); test: Inhibition of IRAK4 in human OCI-LY10 cells assessed as decrease in pIKBalpha levels at 0.3 uM in presence of 3 nM ibrutinib incubated for 14 hrs by Western blotting analysis relative to control; assay type: cell-based
T2 sequence (whole entry): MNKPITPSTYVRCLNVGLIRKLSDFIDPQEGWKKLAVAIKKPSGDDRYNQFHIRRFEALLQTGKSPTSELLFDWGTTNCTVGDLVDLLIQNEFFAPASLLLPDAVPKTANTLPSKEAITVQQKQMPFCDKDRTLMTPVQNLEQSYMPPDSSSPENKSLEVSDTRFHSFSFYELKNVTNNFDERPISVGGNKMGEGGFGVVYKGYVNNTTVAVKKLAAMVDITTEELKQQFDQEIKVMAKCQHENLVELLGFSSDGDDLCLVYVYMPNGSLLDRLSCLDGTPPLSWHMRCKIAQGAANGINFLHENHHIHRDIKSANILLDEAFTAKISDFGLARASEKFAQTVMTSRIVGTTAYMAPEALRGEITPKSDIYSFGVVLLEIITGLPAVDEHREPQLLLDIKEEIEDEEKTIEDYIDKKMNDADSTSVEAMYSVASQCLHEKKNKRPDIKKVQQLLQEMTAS

OCI-LY19 [10] = test: Growth inhibition of human OCI-LY19 cells at 0.13 uM incubated for 3 days by Alamar blue dye based fluorescence assay (reference value: 3%); assay type: functional; details: OCI-LY19, 72 h, read-out: GI
Homo sapiens [11] = species: Homo sapiens; test: Selectivity index, ratio of IC50 for inhibition of CDK9 (unknown origin) to IC50 for inhibition of IRAK4 (unknown origin) in presence of 5 mM ATP by enzymatic assay
Homo sapiens [12] = species: Homo sapiens; test: Selectivity index, ratio of IC50 for inhibition of CDK7 (unknown origin) to IC50 for inhibition of IRAK4 (unknown origin) in presence of 5 mM ATP by enzymatic assay
OCI-Ly10 [13] = test: Growth inhibition of human OCI-LY10 cells at 3.3 uM incubated for 3 days by Alamar blue dye based fluorescence assay (reference value: 3%); assay type: functional; details: OCI-Ly10, 72 h, read-out: GI
[14] = Oral bioavailability in Han Wistar rat at 2 mg/kg; assay type: ADME, organism-based; details: in vivo
[15] = Intrinsic clearance in rat hepatocytes assessed per million cells; assay type: ADME, cell-based, Hepatocyte; details: read-out: CLH
OCI-LY19 [16] = test: Growth inhibition of human OCI-LY19 cells at 3.3 uM incubated for 3 days by Alamar blue dye based fluorescence assay (reference value: 3%); assay type: functional; details: OCI-LY19, 72 h, read-out: GI
[17] = molecular target: T1, Interleukin-1 receptor-associated kinase 1; test: Inhibition of IRAK1 (unknown origin)
Target sequence in this assay (P51617 whole entry): as the sequence (P51617 whole entry, looked up) above

[18] = Unbound fraction in rat plasma at 37 degC by equilibrium dialysis; assay type: ADME, cell-free
[19] = molecular target: Dual specificity protein kinase CLK3 (Homo sapiens, UniProt P49761); test: Inhibition of human recombinant CLK3 expressed in Baculovirus system
Sequence of Dual specificity protein kinase CLK3 (P49761 whole entry): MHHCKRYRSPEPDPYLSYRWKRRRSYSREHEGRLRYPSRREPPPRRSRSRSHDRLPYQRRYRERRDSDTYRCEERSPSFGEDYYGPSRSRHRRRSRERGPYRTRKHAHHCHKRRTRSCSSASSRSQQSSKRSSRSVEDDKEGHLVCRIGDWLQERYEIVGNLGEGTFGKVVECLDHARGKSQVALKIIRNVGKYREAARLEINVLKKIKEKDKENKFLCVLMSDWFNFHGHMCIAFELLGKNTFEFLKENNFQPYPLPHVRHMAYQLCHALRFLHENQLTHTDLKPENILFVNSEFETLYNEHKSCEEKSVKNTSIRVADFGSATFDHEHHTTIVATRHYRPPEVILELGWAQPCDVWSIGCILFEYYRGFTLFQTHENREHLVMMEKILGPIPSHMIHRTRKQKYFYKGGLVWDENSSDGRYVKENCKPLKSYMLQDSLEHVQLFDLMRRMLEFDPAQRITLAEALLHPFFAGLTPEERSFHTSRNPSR

OCI-LY19 [20] = test: Growth inhibition of human OCI-LY19 cells at 0.33 uM incubated for 3 days by Alamar blue dye based fluorescence assay (reference value: 3%); assay type: functional; details: OCI-LY19, 72 h, read-out: GI
Homo sapiens [21] = species: Homo sapiens; test: Selectivity index, ratio of IC50 for inhibition of human recombinant CLK1 expressed in Escherichia coli to IC50 for inhibition of IRAK4 (unknown origin) in presence of 5 mM ATP by enzymatic assay
[22] = molecular target: Dual specificity protein kinase CLK2 (Homo sapiens, UniProt P49760); test: Inhibition of human recombinant CLK2 expressed in Baculovirus system
Sequence of Dual specificity protein kinase CLK2 (P49760 whole entry): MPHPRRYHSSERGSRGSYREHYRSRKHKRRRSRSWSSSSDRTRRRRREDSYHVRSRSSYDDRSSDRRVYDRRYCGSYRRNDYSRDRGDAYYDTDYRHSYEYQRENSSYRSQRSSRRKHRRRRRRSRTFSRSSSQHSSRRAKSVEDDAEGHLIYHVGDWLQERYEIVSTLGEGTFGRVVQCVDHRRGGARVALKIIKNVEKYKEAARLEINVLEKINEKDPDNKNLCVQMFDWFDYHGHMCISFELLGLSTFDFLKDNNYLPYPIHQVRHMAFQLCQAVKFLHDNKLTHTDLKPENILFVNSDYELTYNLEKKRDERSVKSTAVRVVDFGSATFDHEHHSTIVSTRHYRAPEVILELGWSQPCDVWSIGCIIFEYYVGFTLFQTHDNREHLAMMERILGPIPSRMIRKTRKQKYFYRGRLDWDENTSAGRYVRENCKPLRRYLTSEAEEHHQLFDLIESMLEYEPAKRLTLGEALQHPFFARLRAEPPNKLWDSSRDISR

[23] = molecular target: T3, Interleukin-1 receptor-associated kinase 4 (Homo sapiens, UniProt Q9NWZ3); test: Inhibition of IRAK4 (unknown origin) in presence of 5 mM ATP by enzymatic assay
T3 sequence (Q9NWZ3 whole entry): T2 sequence (whole entry)

Homo sapiens [24] = species: Homo sapiens; test: Selectivity index, ratio of IC50 for inhibition of human recombinant CDK8/cyclinC expressed in Baculovirus system to IC50 for inhibition of IRAK4 (unknown origin) in presence of 5 mM ATP by enzymatic assay
OCI-Ly10 [25] = test: Growth inhibition of human OCI-LY10 cells at 1.7 uM incubated for 3 days by Alamar blue dye based fluorescence assay (reference value: 3%); assay type: functional; details: OCI-Ly10, 72 h, read-out: GI
[26] = molecular target: T3, Interleukin-1 receptor-associated kinase 4; test: Inhibition of IRAK4 (unknown origin) by cell based assay
OCI-Ly10 [27] = test: Growth inhibition of human OCI-LY10 cells at 10 uM incubated for 3 days by Alamar blue dye based fluorescence assay (reference value: 3%); assay type: functional; details: OCI-Ly10, 72 h, read-out: GI
Homo sapiens [28] = species: Homo sapiens; test: Selectivity index, ratio of IC50 for inhibition of human recombinant CLK2 expressed in Baculovirus system to IC50 for inhibition of IRAK4 (unknown origin) in presence of 5 mM ATP by enzymatic assay
[29] = Plasma clearance in Han Wistar rat at 1 mg/kg, iv; assay type: ADME, organism-based
Homo sapiens [30] = species: Homo sapiens; test: Selectivity index, ratio of IC50 for inhibition of IRAK1 (unknown origin) to IC50 for inhibition of IRAK4 (unknown origin) in presence of 5 mM ATP by enzymatic assay
[31] = Lipophilicity, logD of the compound at pH 7.4 by shake-flask assay; assay type: physicochemical; details: buffer
OCI-Ly10 [32] = test: Antitumor activity against human OCI-LY10 cells xenografted in CB.17 SCID mouse assessed as inhibition of tumor growth at 100 mg/kg, po QD dosed 34 days after tumor cell inoculation; assay type: functional, organism-based
OCI-Ly10 [33] = test: Antitumor activity against human OCI-LY10 cells xenografted in CB.17 SCID mouse assessed as induction of tumor regression at 100 mg/kg, po QD dosed 34 days after tumor cell inoculation and co-treated with 12 mg/kg, po QD ibrutinib; assay type: functional, organism-based
[34] = Volume of distribution at steady state in Han Wistar rat at 1 mg/kg, iv; assay type: ADME, organism-based; details: in vivo, read-out: Vdss
[35] = Unbound fraction in human plasma at 37 degC by equilibrium dialysis; assay type: ADME, cell-free
[36] = Aqueous solubility in pH 7.4 phosphate buffer; assay type: physicochemical
[37] = molecular target: Cyclin-dependent kinase 7 (Homo sapiens, UniProt P50613); test: Inhibition of CDK7 (unknown origin)
Sequence of Cyclin-dependent kinase 7 (P50613 whole entry): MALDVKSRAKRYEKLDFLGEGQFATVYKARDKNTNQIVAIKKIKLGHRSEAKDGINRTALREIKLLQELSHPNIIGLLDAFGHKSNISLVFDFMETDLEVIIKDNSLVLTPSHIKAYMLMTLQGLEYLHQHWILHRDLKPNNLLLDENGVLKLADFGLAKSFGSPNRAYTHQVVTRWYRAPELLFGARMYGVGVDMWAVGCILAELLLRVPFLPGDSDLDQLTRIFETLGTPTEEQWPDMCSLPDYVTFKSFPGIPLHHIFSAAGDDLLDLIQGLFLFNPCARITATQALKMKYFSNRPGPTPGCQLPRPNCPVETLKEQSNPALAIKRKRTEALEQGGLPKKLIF

OCI-Ly10 [38] = test: Growth inhibition of human OCI-LY10 cells at 0.13 uM incubated for 3 days by Alamar blue dye based fluorescence assay (reference value: 3%); assay type: functional; details: OCI-Ly10, 72 h, read-out: GI
OCI-Ly10 [39] = test: Growth inhibition of human OCI-LY10 cells at 0.33 uM incubated for 3 days by Alamar blue dye based fluorescence assay (reference value: 3%); assay type: functional; details: OCI-Ly10, 72 h, read-out: GI
[40] = molecular target: T2, Interleukin-1 receptor-associated kinase 4 (Homo sapiens); test: Inhibition of IRAK4 (unknown origin) at 0.1 uM relative to control
Homo sapiens [41] = species: Homo sapiens; test: Selectivity index, ratio of IC50 for inhibition of human recombinant CLK3 expressed in Baculovirus system to IC50 for inhibition of IRAK4 (unknown origin) in presence of 5 mM ATP by enzymatic assay
[42] = Efflux ratio in human Caco2 cells; assay type: ADME, cell-based; details: Caco-2
[43] = Intrinsic clearance in human hepatocytes assessed per million cells; assay type: ADME, cell-based, Hepatocyte; details: read-out: CLH
[44] = molecular target: Dual specificity protein kinase CLK1 (Homo sapiens, UniProt P49759); test: Inhibition of human recombinant CLK1 expressed in Escherichia coli
Sequence of Dual specificity protein kinase CLK1 (P49759 whole entry): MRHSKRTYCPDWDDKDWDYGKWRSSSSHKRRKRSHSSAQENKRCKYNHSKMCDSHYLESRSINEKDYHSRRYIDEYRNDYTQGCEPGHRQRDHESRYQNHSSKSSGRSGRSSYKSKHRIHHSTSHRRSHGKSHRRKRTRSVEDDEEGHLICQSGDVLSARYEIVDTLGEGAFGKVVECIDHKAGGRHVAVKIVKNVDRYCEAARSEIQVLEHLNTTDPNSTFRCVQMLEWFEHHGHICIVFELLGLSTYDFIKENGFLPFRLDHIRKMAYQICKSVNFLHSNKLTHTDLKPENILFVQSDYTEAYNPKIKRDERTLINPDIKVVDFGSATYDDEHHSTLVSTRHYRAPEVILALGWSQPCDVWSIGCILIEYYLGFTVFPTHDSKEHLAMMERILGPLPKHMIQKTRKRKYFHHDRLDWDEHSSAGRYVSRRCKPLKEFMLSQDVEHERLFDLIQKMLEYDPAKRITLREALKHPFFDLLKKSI

CDK8/Cyclin C = CDK8/Cyclin C (Homo sapiens, UniProt P49336); test: Inhibition of human recombinant CDK8/cyclinC expressed in Baculovirus system
Sequence of CDK8/Cyclin C (P49336 whole entry): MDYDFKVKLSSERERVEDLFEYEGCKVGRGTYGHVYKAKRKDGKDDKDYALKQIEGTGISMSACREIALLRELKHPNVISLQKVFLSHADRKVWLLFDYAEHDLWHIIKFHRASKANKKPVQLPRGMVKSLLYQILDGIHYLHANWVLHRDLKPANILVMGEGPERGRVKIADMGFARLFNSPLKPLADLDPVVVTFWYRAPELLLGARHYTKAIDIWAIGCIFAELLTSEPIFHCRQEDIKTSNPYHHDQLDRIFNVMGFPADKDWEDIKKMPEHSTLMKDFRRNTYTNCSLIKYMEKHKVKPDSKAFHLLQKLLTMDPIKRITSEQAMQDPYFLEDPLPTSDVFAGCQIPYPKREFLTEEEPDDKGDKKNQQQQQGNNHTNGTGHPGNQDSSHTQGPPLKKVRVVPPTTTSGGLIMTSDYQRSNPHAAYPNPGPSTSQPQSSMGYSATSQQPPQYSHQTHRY
Sequence of CDK8/Cyclin C (P24863 whole entry, further chain): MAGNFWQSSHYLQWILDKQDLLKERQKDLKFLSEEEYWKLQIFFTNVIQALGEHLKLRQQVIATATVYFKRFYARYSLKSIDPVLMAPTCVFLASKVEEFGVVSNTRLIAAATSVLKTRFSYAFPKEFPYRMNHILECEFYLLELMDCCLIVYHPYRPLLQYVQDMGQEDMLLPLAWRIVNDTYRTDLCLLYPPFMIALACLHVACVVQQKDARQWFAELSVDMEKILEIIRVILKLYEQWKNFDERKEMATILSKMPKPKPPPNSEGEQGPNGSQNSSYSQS

Homo sapiens [45] = species: Homo sapiens; test: Selectivity index, ratio of IC50 for inhibition of human recombinant CLK4 expressed in Baculovirus system to IC50 for inhibition of IRAK4 (unknown origin) in presence of 5 mM ATP by enzymatic assay

Structure (SMILES): COC(=O)N1CCN([C@H]2CC[C@H](Nc3nc(Nc4cnn(C)c4)nc4ccc(CC#N)nc34)CC2)CC1
- inhibition [1]: 70%
- inhibition of growth at 10 µM (OCI-LY19 [2]): 88%
- IC50 [3]: 1000 nM
- IC50 [4]: 13000 nM
- inhibition of growth at 1.7 µM (OCI-LY19 [5]): 31%
- fraction unbound [6]: 0.44
- AUC [7]: 23 µM·h
- Papp [8]: 9.3 ×10⁻⁶ cm/s
- inhibition [9]: 100%
- inhibition of growth at 0.13 µM (OCI-LY19 [10]): 6%
- Ratio IC50 (Homo sapiens [11]): 3250
- Ratio IC50 (Homo sapiens [12]): 4250
- inhibition of growth at 3.3 µM (OCI-Ly10 [13]): 44%
- bioavailability [14]: 10%
- hepatocyte CLint [15]: 10 µL/min/1e6 cells
- inhibition of growth at 3.3 µM (OCI-LY19 [16]): 50%
- IC50 [17]: 27 nM
- fraction unbound [18]: 0.23
- IC50 [19]: > 10000 nM
- inhibition of growth at 0.33 µM (OCI-LY19 [20]): 10%
- Ratio IC50 (Homo sapiens [21]): 775
- IC50 [22]: 1400 nM
- IC50 [23]: 4 nM
- Ratio IC50 (Homo sapiens [24]): > 2500
- inhibition of growth at 1.7 µM (OCI-Ly10 [25]): 25%
- IC50 [26]: 46 nM
- inhibition of growth at 10 µM (OCI-Ly10 [27]): 82%
- Ratio IC50 (Homo sapiens [28]): 350
- clearance [29]: 25 mL/min/kg
- Ratio IC50 (Homo sapiens [30]): 6.8
- logD [31]: 2.3
- TGI (OCI-Ly10 [32]): Active
- Activity (OCI-Ly10 [33]): Active
- Vd [34]: 4.5 L/kg
- fraction unbound [35]: 0.3
- solubility [36]: 29 µM (≈ 14.6 µg/mL)
- IC50 [37]: 17000 nM
- inhibition of growth at 0.13 µM (OCI-Ly10 [38]): 8%
- inhibition of growth at 0.33 µM (OCI-Ly10 [39]): 12%
- inhibition [40]: 104%
- Ratio IC50 (Homo sapiens [41]): > 2500
- efflux ratio [42]: 24
- hepatocyte CLint [43]: 10 µL/min/1e6 cells
- IC50 [44]: 3100 nM
- IC50 (CDK8/Cyclin C): > 10000 nM
- Ratio IC50 (Homo sapiens [45]): 250
